Source: patent publication US9040554B2, “Solid forms of nematocidal sulfonamides” (priority 2011, dated 2015)

Tests used:
[1] = Stability experiment for polymorph Form A of Compound 1 (stability chamber); format: physicochemical
Protocol: The physical stability of Form A of Compound 1 was determined as follows. Compound 1 prepared according to Preparation Example 3 was analyzed by pXRD, DSC, HPLC and ^1H-NMR and found to be of pure crystal Form A of 99.9% purity (by HPLC peak area at 230 nm detection wavelength). An aliquot of the sample (3.0 g) was placed in a primary polyethylene bag, the primary bag was flushed with nitrogen gas and sealed. The primary polyethylene bag was then placed in a secondary polyethylene bag which was again flushed with nitrogen gas and a silica gel sachet was placed between the inner and the outer bag. The double bagged material was then placed in a triple laminated aluminum pouch and placed in a stability chamber at 40° C. for 30 days. Analysis by HPLC and ^1H-NMR of the resulting material indicated pure Form A of Compound 1 of 99.9% purity (by HPLC peak area at 230 nm).

[2] = Relative stability experiments: non-competitive and competitive interconversion of crystal forms of Compound 1; format: physicochemical; conditions: for crystal form of the resulting material (pXRD, DSC, TGA, 1H-NMR): non-competitive, single starting form, refluxed in deionized water at about 95° C. for 3 hours
Protocol: The relative stability of various crystal forms of Compound 1 were subjected to non-competitive and competitive interconversion experiments.
In Example 12a, Form A of Compound 1 (0.4 g) prepared according to Preparation Example 5c was refluxed in deionized water (4 mL) at about 95° C. for 3 hours. The slurry was cooled to 25-30° C., filtered, suction dried for 1 hour and dried in a vacuum oven at 70° C. and 8 kPa absolute pressure for 12 hours.
(§1) In Example 12b, Form B of Compound 1 (0.4 g) prepared according to Preparation Example 5f was refluxed in deionized water (4 mL) at about 95° C. for 3 hours. The slurry was cooled to 25-30° C., filtered, suction dried for 1 hour and dried in a vacuum oven at 70° C. and 8 kPa absolute pressure for 12 hours. Analysis by pXRD, DSC, TGA and ^1H-NMR of the resulting material indicated Form A.
as §1, with “12c,” for “12b,”, “D” for “B”, “5g” for “5f”
as §1, with “12d,” for “12b,”, “TS” for “B”, “(1” for “(0.4”, “1” for “5f”, “(10” for “(4”, “65°” for “70°”
as §1, with “12e, Form A (0.6 g) and” for “12b,”, “B (0.6 g)” for “B”, “1” for “1 (0.4 g)”, “Examples 5c and 5f, respectively, were blended as solids and” for “Example 5f was”, “(12” for “(4”, “65°” for “70°”
(§2) In Example 12f, Form B (0.6 g) and Form D (0.6 g) of Compound 1 prepared according to Preparation Examples 5f and 5g, respectively, were blended as solids and refluxed in deionized water (12 mL) at about 95° C. for 3 hours. The slurry was cooled to 25-30° C., filtered, suction dried for 1 hour and dried in a vacuum oven at 65° C. and 8 kPa absolute pressure for 12 hours. Analysis by pXRD, DSC and ^1H-NMR of the resulting material indicated Form A.
as §2, with “12g,” for “12f,”, “A” for “B”, “5c” for “5f”
as §2, with “12h, Form A (0.25 g),” for “12f,”, “(0.25 g), Form D (0.25” for “(0.6”, “TS (0.25” for “D (0.6”, “5c, 5f, 5g,” for “5f”, “1,” for “5g,”, “(10” for “(12”
In Example 12i, Form A (0.25 g), Form B (0.25 g), Form D (0.25 g) and mixed Forms A and B (0.25 g) of Compound 1 prepared according to Preparation Examples 5c, 5f, 5g and 2, respectively, were blended as solids and refluxed in deionized water (10 mL) at about 95° C. for 3 hours. The slurry was cooled to 25-30° C., filtered, suction dried for 1 hour and dried in a vacuum oven at 65° C. and 8 kPa absolute pressure for 12 hours. Analysis by pXRD, DSC and ^1H-NMR of the resulting material indicated Form A. […]

[3] = Example 12e, competitive: Form A + Form B blended, deionized water, about 95° C., 3 hours
[4] = Example 12g, competitive: Form A + Form D blended, deionized water, about 95° C., 3 hours
[5] = Example 12i, competitive: Forms A, B, D and mixed Forms A and B blended, deionized water, about 95° C., 3 hours
[6] = Example 12j, competitive: Forms A, B, D and mixed Forms A and B blended, methanol, about 55° C., 3 hours
[7] = Example 12k, competitive: Forms A, B and D blended, deionized water, about 55° C., 168 hours
[8] = Example 12h, competitive: Forms A, B, D and TS blended, deionized water, about 95° C., 3 hours
[9] = Example 12f, competitive: Form B + Form D blended, deionized water, about 95° C., 3 hours

Row | SMILES | crystal form after storage (pXRD and DSC) ([1]; 40° C. for 30 days) | purity after storage (HPLC peak area at 230 nm) ([1]; 40° C. for 30 days, sealed under nitrogen in double polyethylene bag and aluminum pouch) | physical and chemical stability, in words ([1]; pure solid form) | crystal form of the resulting material [2, 3] | crystal form of the resulting material [2, 4] | crystal form of the resulting material [2, 5] | crystal form of the resulting material [2, 6] | crystal form of the resulting material [2, 7] | crystal form of the resulting material [2, 8] | crystal form of the resulting material (pXRD, DSC, TGA, 1H-NMR) [2] | relative thermodynamic stability of the solid forms, in words ([2]; under the conditions studied) | crystal form of the resulting material [2, 9] | crystal form of the resulting material ([2]; Example 12l: slurry in deionized water stirred at 25° C. for about 168 hours)
1 | COc1ccc(Cl)c(S(=O)(=O)NC(=O)c2cn3cc(C(F)(F)F)cc(Cl)c3n2)c1 [Form A, 8-chloro-N-[(2-chloro-5-methoxyphenyl)sulfonyl]-6-(trifluoromethyl)-imidazo[1,2-a]pyridine-2-carboxamide] | pure polymorph Form A | 99.9% | physically and chemically stable | Form A | Form A | Form A | Form A | Form A | Form A | remained unchanged, i.e. Form A | most thermodynamically stable polymorph form |  | 
2 | COc1ccc(Cl)c(S(=O)(=O)NC(=O)c2cn3cc(C(F)(F)F)cc(Cl)c3n2)c1 [Form B, 8-chloro-N-[(2-chloro-5-methoxyphenyl)sulfonyl]-6-(trifluoromethyl)-imidazo[1,2-a]pyridine-2-carboxamide] |  |  |  | Form A |  | Form A | Form A | Form A | Form A | Form A |  | Form A | 
3 | COc1ccc(Cl)c(S(=O)(=O)NC(=O)c2cn3cc(C(F)(F)F)cc(Cl)c3n2)c1 [Form D, 8-chloro-N-[(2-chloro-5-methoxyphenyl)sulfonyl]-6-(trifluoromethyl)-imidazo[1,2-a]pyridine-2-carboxamide] |  |  |  |  | Form A | Form A | Form A | Form A | Form A | Form A |  | Form A | 
4 | COc1ccc(Cl)c(S(=O)(=O)NC(=O)c2cn3cc(C(F)(F)F)cc(Cl)c3n2)c1 [Form TS, 8-chloro-N-[(2-chloro-5-methoxyphenyl)sulfonyl]-6-(trifluoromethyl)-imidazo[1,2-a]pyridine-2-carboxamide] |  |  |  |  |  |  |  |  | Form A | Form A |  |  | 
5 | COc1ccc(Cl)c(S(=O)(=O)NC(=O)c2cn3cc(C(F)(F)F)cc(Cl)c3n2)c1 [mixed Forms A and B, 8-chloro-N-[(2-chloro-5-methoxyphenyl)sulfonyl]-6-(trifluoromethyl)-imidazo[1,2-a]pyridine-2-carboxamide] |  |  |  |  |  | Form A | Form A |  |  |  |  |  | Form A
